Laboratory results from patent US20260021103A1, “IKZF2 AND CK1-ALPHA DEGRADING COMPOUNDS AND USES THEREOF” (President and Fellows of Harvard College, priority 2022, published 2026).

Assays:
IKZF1 = biological target: T1, IKZF1 (Homo sapiens, UniProt Q13422+Q96SW2); experiment: Flow cytometry for measuring degradation, HEK293T GFP-POI reporter cells (IKZF1); format: cell-based; conditions: 24 h, HEK293T GFP reporter
T1 construct: expressed in transfected cells; host or cells: HEK293T (lentiviral transduction, puromycin selection, FACS sorting)

IKZF2 = biological target: T2, IKZF2 (Homo sapiens, UniProt Q96SW2+Q9UKS7); experiment: Flow cytometry for measuring degradation, HEK293T GFP-POI reporter cells (IKZF2); format: cell-based
T2 construct: expressed in transfected cells; host or cells: HEK293T (lentiviral transduction, puromycin selection, FACS sorting)

CK1α = biological target: T3, CK1α (Homo sapiens, UniProt P48729+Q96SW2); experiment: Flow cytometry for measuring degradation, HEK293T GFP-POI reporter cells (CK1α); format: cell-based
T3 construct: expressed in transfected cells; host or cells: HEK293T (lentiviral transduction, puromycin selection, FACS sorting)

[1] = In vitro solubility in DMSO; format: physicochemical; conditions: DMSO
[2] = test system: endometrioid ovarian cancer cell line A2780; experiment: 5-day MTT assay in A2780 cells; format: cell-based; conditions: Homo sapiens, 120 h; A2780, 5-day MTT assay
Protocol: (§1) Viability Assay: 10,000 cells (e.g., MOLM-13 cells, MLL-AF9 leukemic cells or normal BM cells) were plated onto flat-bottom 96-well plates in media with increasing concentration of compound up to […]. […] For measuring viability, Cell-Titer Glo kit (Promega) or MTT kit was used following manufacturer's instructions. For Cell-Titer Glo assay, cells were cooled to room temperature for 20-30 min, 100 μL of the cultured cells were transferred to opaque-white bottom 96-well plates and mixed with 100 μL of Cell-Titer Glo reagent. The mixture was incubated for 15 min at room temperature and read using a Synergy H1 Hybrid reader (BioTek) for luminescence. Data was normalized as percentage viability and graphed by non-linear regression curves in Graph Pad PRISM 7.0.

DLBCL cell line OCI-LY3 = experiment: 5-day MTT assay in OCI-LY3 cells; format: cell-based; conditions: Homo sapiens, 120 h; OCI-LY3, 5-day MTT assay
Protocol: as §1

[3] = test system: small cell lung cancer cell line NCI-H1048; experiment: 5-day MTT assay in NCI-H1048 cells; format: cell-based; conditions: NCI-H1048, 5-day MTT assay
Protocol: as §1

MOLM-13 cells [4] = experiment: Cell viability assay in MOLM-13 cells; format: cell-based; conditions: Homo sapiens, read-out: IC50 (cytotoxicity)
Protocol: Viability Assay: 10,000 cells (e.g., MOLM-13 cells, MLL-AF9 leukemic cells or normal BM cells) were plated onto flat-bottom 96-well plates in media with increasing concentration of compound up to 100 µM. Cells were cultured for 72 h at 37° C. in a 5% CO2 incubator. For measuring viability, Cell-Titer Glo kit (Promega) or MTT kit was used following manufacturer's instructions. For Cell-Titer Glo assay, cells were cooled to room temperature for 20-30 min, 100 μL of the cultured cells were transferred to opaque-white bottom 96-well plates and mixed with 100 μL of Cell-Titer Glo reagent. The mixture was incubated for 15 min at room temperature and read using a Synergy H1 Hybrid reader (BioTek) for luminescence. Data was normalized as percentage viability and graphed by non-linear regression curves in Graph Pad PRISM 7.0.

[5] = In vitro metabolic stability; format: in vitro ADME; conditions: read-out: in vitro metabolic stability t1/2
[6] = Pharmacokinetics, plasma concentration in mice; conditions: male, CD1, mouse, ip, single intraperitoneal injection at 5 mg/kg, read-out: in vivo half-life t1/2 (converted)
Protocol: (§2) In vivo drug administration in MLL-AF9 and PDX mouse model: A total of 250,000 of MLL-AF9 BM secondary mouse leukemia cells were injected retroorbitally into 6-8 weeks-old female C57BL/6 recipient mice that has been sublethally irradiated at 450 cGy. For AML PDX model, 1 million PDX cells were transplanted by intravenous injection into 8-10 weeks old female NSG mice that had been sublethally irradiated at 200 rads 24 hr before transplant. […] DEG-77 was treated at 223 mg/kg in DMSO in 50 ul volume. Mice weight was monitored every day to check for toxicity. Mice were sacrificed when moribund, and organ weights were measured for disease burden. Spleen and bone marrow cells were isolated and processed for western blot analysis. All animal studies were performed on animal protocols approved by the Institutional Animal Care and Use Committee (IACUC) at Memorial Sloan Kettering Cancer Center. […] Plasma was extracted from each mouse after indicated time and DEG-35 in plasma was measured using HPLC. For examining the toxicity of DEG-77 in the hematopoietic system of Crbn^1391V mice, four rounds of DMSO or 223 mg/kg DEG-77 was treated in 8-12 weeks old female Crbn^1391V mice. Mice were injected once a week and were sacrificed 4 weeks later for blood analysis using the Element HT5 Hematology Analyzer (HESKA) and analysis of the hematopoietic cells by flow cytometry.

MLL-AF9 Crbn^1391V cells [7] = experiment: Survival of BL6 mice transplanted with MLL-AF9 Crbn^1391V cells; format: in vivo; conditions: 223 mg/kg once per week
Protocol: Generation of MLL-AF9 Crbn^1391V leukemic cells: Lin-Sca+ Kit+ (LSK) cells were isolated from bone marrow cells of wildtype or Crbn^1391V mice that were 6 to 8 weeks old. Briefly, bone marrow cells were enriched for c-Kit positive cells by incubating with CD117/c-Kit microbeads and then processed through the autoMACS Pro Separator (Miltenyi Biotec), following the manufacturer's instructions. CKit enriched cells were stained with Lineage antibody cocktail (CD3, CD4, CD8, Gr1, B220, CD19, TER119 conjugated with PeCy5), Scal-Pac Blue, CD34-FITC, SLAM-APC, CD48-PE, and c-KIT-APC-Cy7. After staining, cells were sorted for LSK cells using a BD FACS Aria II instrument. Sorted LSK cells were incubated overnight in Stemspan SFEM medium (Stem Cell Technologies) with 10 ng/ml IL-3, 10 ng/ml IL-6, 50 ng/ml SCF. 10 ng/ml thrombopoietin (TPO), and 20 ng/ml FLT-3 ligand. […]
In vivo drug administration in MLL-AF9 and PDX mouse model: A total of 250,000 of MLL-AF9 BM secondary mouse leukemia cells were injected retroorbitally into 6-8 weeks-old female C57BL/6 recipient mice that has been sublethally irradiated at 450 cGy. […] Mice weight was monitored every day to check for toxicity. Mice were sacrificed when moribund, and organ weights were measured for disease burden. […] Plasma was extracted from each mouse after indicated time and DEG-35 in plasma was measured using HPLC. […]

AML PDX cells = experiment: AML PDX model in NSG mice; format: in vivo
Protocol: as §2

GSPT1 [8] = biological target: T4, GSPT1 (Homo sapiens, UniProt P15170+Q96SW2); experiment: Western blot of NCI-H1048 cells for GSPT1; format: cell-based; conditions: 24 h
[9] = Toxicity in hematopoietic system of Crbn^1391V mice; format: in vivo; conditions: four rounds, 223 mg/kg weekly
Protocol: as §2

MOLM-13 cells [10] = experiment: Survival of NSG mice transplanted with MOLM-13 cells; format: in vivo; conditions: MOLM-13 transplanted mice, 223 mg/kg weekly
MLL-AF9 Crbn^1391V cells [11] = experiment: Survival of Crbn^1391V mice transplanted with MLL-AF9 Crbn^1391V cells; format: in vivo; conditions: 223 mg/kg weekly
GSPT1 [12] = biological target: T4, GSPT1; experiment: Flow cytometry for measuring degradation, HEK293T GFP-POI reporter cells (GSPT1); format: cell-based; design: expressed in transfected cells; host or cells: HEK293T; conditions: 24 h, HEK293T GFP reporter
[13] = 100 nM, 24 h, HEK293T GFP reporter
[14] = 1 μM, 24 h, HEK293T GFP reporter

T3 sequence (P48729 whole entry): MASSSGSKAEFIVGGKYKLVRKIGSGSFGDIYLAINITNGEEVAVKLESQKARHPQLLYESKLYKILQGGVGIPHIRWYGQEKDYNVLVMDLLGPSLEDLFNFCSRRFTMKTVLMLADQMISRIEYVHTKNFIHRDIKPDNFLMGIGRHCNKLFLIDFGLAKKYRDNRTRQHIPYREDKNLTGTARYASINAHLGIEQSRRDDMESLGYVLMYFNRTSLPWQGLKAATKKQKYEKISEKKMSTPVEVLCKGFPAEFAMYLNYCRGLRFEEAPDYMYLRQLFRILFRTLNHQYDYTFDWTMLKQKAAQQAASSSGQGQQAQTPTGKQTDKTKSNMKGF
T3 sequence (Q96SW2 whole entry): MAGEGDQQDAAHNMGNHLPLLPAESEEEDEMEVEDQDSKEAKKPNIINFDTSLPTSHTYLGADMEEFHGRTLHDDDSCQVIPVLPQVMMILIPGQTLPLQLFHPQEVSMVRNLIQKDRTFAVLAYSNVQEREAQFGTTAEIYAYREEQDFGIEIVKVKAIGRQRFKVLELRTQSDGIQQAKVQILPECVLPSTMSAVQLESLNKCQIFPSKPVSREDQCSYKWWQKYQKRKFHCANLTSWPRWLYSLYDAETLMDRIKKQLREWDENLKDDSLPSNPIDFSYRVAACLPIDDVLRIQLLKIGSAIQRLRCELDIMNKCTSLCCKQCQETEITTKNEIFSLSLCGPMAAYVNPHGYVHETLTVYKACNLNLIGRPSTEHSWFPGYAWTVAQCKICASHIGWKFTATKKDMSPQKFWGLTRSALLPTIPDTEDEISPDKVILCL
T3 sequence (Q16531 whole entry partner): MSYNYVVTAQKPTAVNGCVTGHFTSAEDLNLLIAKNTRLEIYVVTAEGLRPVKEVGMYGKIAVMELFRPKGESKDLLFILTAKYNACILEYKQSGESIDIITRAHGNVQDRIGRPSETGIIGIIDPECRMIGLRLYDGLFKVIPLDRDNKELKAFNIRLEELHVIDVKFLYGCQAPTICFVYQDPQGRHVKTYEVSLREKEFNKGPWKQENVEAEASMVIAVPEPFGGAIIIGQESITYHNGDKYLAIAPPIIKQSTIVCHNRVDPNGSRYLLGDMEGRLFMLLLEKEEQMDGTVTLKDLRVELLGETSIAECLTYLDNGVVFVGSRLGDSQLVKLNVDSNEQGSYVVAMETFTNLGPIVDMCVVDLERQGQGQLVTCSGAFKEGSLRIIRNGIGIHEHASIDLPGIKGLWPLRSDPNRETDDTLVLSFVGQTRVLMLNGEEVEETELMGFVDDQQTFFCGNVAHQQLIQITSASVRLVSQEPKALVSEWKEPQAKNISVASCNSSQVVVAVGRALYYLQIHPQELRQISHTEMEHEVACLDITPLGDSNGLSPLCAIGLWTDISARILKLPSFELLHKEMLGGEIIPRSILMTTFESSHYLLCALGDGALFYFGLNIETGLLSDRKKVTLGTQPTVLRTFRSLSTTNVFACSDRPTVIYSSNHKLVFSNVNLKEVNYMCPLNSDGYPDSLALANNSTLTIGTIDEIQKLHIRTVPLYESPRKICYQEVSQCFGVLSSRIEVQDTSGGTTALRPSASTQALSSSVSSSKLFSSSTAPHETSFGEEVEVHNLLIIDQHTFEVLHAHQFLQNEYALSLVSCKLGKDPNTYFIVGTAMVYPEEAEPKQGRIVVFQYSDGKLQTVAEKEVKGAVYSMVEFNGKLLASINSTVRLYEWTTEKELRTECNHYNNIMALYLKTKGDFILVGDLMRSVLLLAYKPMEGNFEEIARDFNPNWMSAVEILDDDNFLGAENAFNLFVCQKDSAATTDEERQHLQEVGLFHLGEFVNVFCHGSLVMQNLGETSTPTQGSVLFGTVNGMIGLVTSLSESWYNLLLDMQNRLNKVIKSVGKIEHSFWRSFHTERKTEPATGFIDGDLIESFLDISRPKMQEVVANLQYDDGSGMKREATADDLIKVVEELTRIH
T2 sequence (Q9UKS7 whole entry): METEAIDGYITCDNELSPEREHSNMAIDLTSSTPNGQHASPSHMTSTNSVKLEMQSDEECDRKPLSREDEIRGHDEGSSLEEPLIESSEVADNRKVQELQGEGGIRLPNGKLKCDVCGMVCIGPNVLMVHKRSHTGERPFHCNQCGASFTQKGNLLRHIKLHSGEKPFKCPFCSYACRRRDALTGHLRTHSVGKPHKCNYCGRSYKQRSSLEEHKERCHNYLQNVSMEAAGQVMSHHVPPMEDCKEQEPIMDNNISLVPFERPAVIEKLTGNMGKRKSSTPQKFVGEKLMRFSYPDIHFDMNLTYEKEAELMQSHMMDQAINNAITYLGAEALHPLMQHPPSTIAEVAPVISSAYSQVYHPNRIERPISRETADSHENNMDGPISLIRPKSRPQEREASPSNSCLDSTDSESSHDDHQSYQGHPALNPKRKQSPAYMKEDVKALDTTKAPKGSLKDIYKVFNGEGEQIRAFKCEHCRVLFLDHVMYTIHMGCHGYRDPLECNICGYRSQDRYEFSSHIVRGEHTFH
T2 sequence (Q96SW2 whole entry): as the sequence (Q96SW2 whole entry) above
T2 sequence (Q16531 whole entry partner): as the sequence (Q16531 whole entry partner) above
T4 sequence (P15170 whole entry): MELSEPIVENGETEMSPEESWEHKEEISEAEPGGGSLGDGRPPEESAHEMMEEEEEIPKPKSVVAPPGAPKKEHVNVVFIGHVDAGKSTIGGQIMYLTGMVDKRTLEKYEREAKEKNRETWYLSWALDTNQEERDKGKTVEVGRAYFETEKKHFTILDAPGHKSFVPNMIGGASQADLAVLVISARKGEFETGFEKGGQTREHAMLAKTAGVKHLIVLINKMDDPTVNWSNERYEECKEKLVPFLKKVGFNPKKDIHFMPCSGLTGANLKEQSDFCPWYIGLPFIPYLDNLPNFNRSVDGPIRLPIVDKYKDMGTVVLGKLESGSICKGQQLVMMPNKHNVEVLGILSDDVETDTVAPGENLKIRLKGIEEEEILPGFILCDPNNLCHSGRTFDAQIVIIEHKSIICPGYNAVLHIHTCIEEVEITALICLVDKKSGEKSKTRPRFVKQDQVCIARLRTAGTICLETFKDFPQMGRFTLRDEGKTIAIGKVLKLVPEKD
T4 sequence (Q96SW2 whole entry): as the sequence (Q96SW2 whole entry) above
T4 sequence (Q16531 whole entry partner): as the sequence (Q16531 whole entry partner) above
T1 sequence (Q13422 whole entry): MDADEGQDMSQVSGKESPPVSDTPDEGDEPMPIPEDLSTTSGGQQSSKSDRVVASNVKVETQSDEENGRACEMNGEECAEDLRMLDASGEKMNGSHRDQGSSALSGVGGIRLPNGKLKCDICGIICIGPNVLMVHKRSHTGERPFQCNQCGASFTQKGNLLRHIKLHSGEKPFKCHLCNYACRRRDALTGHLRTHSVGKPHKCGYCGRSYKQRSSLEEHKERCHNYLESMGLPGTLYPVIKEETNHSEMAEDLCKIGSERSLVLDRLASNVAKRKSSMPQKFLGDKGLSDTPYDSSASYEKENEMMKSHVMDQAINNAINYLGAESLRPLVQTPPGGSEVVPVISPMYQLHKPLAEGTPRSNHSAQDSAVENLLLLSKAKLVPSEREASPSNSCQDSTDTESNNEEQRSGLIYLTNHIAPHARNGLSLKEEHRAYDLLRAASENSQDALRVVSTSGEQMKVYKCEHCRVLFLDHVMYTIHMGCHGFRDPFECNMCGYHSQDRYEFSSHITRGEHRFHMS
T1 sequence (Q96SW2 whole entry): as the sequence (Q96SW2 whole entry) above
T1 sequence (Q16531 whole entry partner): as the sequence (Q16531 whole entry partner) above

For `COc1cccc2c1OCC(C(=O)Nc1ccc3c(c1)CN(C1CCC(=O)NC1=O)C3=O)=C2` (centres unmarked) [DEG-77, N-(2-(2,6-dioxopiperidin-3-yl)-1-oxoisoindolin-5-yl)-8-methoxy-2H-chromene-3-carboxamide], the “IKZF1% degradation at 100 nM” value (IKZF1; 100 nM) was 10.7 ± 1.1%, the “IKZF1% degradation at 1 μM” value (IKZF1; 1 μM) was 29 ± 0.9% and the DC50 (IKZF2) was 0.0153 µM. The “IKZF2% degradation at 100 nM” value (IKZF2; [13]) was 82.3 ± 0.6%, the “IKZF2% degradation at 1 μM” value (IKZF2; [14]) was 94.4 ± 0.1% and the “CK1α % degradation at 100 nM” value (CK1α; [13]) was 68.6 ± 1%. For the same compound, the “CK1α % degradation at 1 μM” value (CK1α; [14]) was 72.7 ± 0.8%, the DC50 (CK1α; read-out: DC50 CK1α) was 0.01 µM and the “increase in solubility in DMSO compared to DEG-35” value [1] was 10 fold. The EC50 [2] was 0.027 µM, the EC50 (DLBCL cell line OCI-LY3) was 0.014 µM and the “sensitivity of NCI-H1048 cells (in words)” value [3] was “selectively sensitive to DEG-35 and not DEG-77”. It also gave an IC50 (MOLM-13 cells [4]) of 0.004 µM, a half-life [5] of over 6 h and a half-life [6] of 8 h. For the same compound, the “total body weight (in words)” value (MLL-AF9 Crbn^1391V cells [7]) was “without total body weight loss”, the survival (MLL-AF9 Crbn^1391V cells [7]; vehicle treated mice 35 days) was 66 days and the “survival (in words)” value (AML PDX cells; PDX AML model, weekly from 4 weeks post-transplant, 223 mg/kg) was “significant extension of survival”. For the same compound, the “engraftment of PDX cells in the bone marrow” value (AML PDX cells; after a single injection, >85% prior to treatment) was “around 40%”, the “GSPT1 degradation by Western blot (in words)” value (GSPT1 [8]) was “did not affect protein levels” and the “WBC counts (in words)” value [9] was “modest reduction of WBC counts”. For the same compound, the “platelets and RBC counts (in words)” value [9] was “remained unchanged”, the “survival (in words)” value (MOLM-13 cells [10]) was “increased survival” and the “survival (in words)” value (MLL-AF9 Crbn^1391V cells [11]) was “significant increase in survival”. The “GSPT1% degradation at 100 nM” value (GSPT1 [12]; 100 nM) was 3.7 ± 1.3% and the “GSPT1% degradation at 1 μM” value (GSPT1 [12]; 1 μM) was 2.6 ± 1%.
